Test results taken from patent US7652153B2, “Caspase inhibitors and uses thereof” (Vertex Pharmaceuticals Incorporated, priority 2004, dated 2010).

Key:
caspase-8 = caspase-8 (Homo sapiens, UniProt Q14790); test: Caspase-8 enzyme inhibition (Ki, method of Margolin et al.); type: biochemical; settings: Ac-DEVD-pNA substrate 80 μM, 37° C., pH 7.5; read-out: Ki C8
Outline: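 Caspase (0.5-40 nM active, by active-site titration) preincubated with inhibitor 15 min at 37° C in 10 mM Tris pH 7.5, 1 mM DTT, 0.1% CHAPS. Reaction started with Ac-DEVD-pNA (80 μM final), rate followed by absorbance at 405 nm; Ki from Morrison tight-binding fit for competitive inhibitors.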

caspase-1 = biological target: T1, caspase-1 (Homo sapiens, UniProt P29466); test: Caspase-1 enzyme inhibition (Ki, method of Margolin et al.); type: biochemical; settings: Suc-YVAD-pNA substrate 80 μM, 37° C., pH 7.5; read-out: Ki C1
T1 sequence (P29466 120-297 limits assumed): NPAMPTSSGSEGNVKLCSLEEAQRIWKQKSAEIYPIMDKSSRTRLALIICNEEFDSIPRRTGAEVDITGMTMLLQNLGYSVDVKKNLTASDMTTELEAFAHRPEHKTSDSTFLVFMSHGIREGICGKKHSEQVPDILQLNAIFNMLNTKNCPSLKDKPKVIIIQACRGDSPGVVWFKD
T1 sequence (P29466 317-404 limits assumed): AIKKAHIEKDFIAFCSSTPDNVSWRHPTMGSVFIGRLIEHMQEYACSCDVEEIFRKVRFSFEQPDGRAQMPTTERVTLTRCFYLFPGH
Outline: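 Enzyme (0.5-40 nM active, by active-site titration) preincubated 15 min at 37° C with inhibitor in 10 mM Tris pH 7.5, 1 mM DTT, 0.1% CHAPS. Reaction started with Suc-YVAD-pNA (80 μM final), rate followed by absorbance at 405 nm at 37° C. Ki from Morrison tight-binding fit for competitive inhibitors.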

Sequence of caspase-8 (Q14790 217-374 limits assumed, species assumed): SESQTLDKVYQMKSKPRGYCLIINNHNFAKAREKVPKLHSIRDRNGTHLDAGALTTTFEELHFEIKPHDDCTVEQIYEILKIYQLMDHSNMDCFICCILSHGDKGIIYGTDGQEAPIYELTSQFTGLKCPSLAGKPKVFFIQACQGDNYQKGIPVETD
Sequence of caspase-8 (Q14790 385-479 limits assumed, species assumed): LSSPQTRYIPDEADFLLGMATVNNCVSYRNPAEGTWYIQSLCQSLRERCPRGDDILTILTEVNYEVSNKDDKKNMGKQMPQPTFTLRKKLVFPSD

Ki (caspase-8): 10 to 20 nM | Ki (caspase-1): < 10 nM
Structure (SMILES): CC(C)[C@H](NC(=O)c1ccccc1OC(F)(F)F)C(=O)N1CCC[C@H]1C(=O)N[C@H](C=O)CC(=O)O [II-5, (S,S,S)-(3S)-({1-[3-Methyl-(2S)-(2-trifluoromethoxy-benzoylamino)-butyryl]-pyrrolidine-(2S)-carbonyl}-amino)-4-oxo-butyric acid]
